In one experiment the test system is Entamoeba histolytica. The experiment can be described thus: MMV: Primary screening was performed with each compound at a 30 uM final concentration and in triplicate in sealed 96-well polystyrene microtiter plates. Parasite inocula (100 ul) comprising 20000 parasites/ml were added to each well and grown at 37 degrees C in a humidified atmosphere of 5% CO2 for 72 h. Positive controls consisted of metronidazole at 1 mg/ml. The growth of E. histolytica trophozoites in each well was determined microscopically by measuring the diameters of the confluent cells in drug-containing wells relative to those in the nega- tive-control wells. The format is functional, organism-based.

In the next experiment the test system is Toxoplasma gondii. The experiment is described as follows: MMV: A total of 100ul of inoculum was added to each well (parasite/cell ratio, ~10:1; final volume, 200 ul). Six hours after inoculation, nonadherent parasites were removed, and 100 ul of complete DMEM (1% penicillin-streptomycin, 3% FBS) supplemented with inhibitors at different concentrations (2-fold serial dilutions starting from 30 uM) was added to all except the negative-control wells. Positive controls, consisting of pyrimethamine (PYR) and sulfadiazine (SDZ) (20-mg/ml stocks in DMSO), were tested at a 2mg/ml final concentration. Each test was performed in triplicate. Format: functional, organism-based. Particulars: 6 h.

Regarding `CC(C)CNC(=O)c1c(N)n(CCc2ccccc2F)c2nc3ccccc3nc12`, the IC50 is more than 30 µM in the experiment with Entamoeba histolytica and 26.8 µM with Toxoplasma gondii.

As for `COc1ccc(CCN2CCC(CN(C)Cc3cnn(-c4ccccc4)c3)CC2)cc1`, the half-inhibitory concentration (IC50) in the experiment with Entamoeba histolytica and in the experiment with Toxoplasma gondii was more than 30 µM each time.

As for `COc1ccc2nc(C)cc(Nc3ccccc3O)c2c1`, the IC50 with Entamoeba histolytica and with Toxoplasma gondii was more than 30 µM in each case.

Take `O=C(CCc1ccco1)NC1CCN(CC2(c3ccc(Cl)cc3)CCC2)CC1`: the IC50 is more than 30 µM in the experiment on Entamoeba histolytica and 24 µM in the experiment on Toxoplasma gondii.

As to `CC(C)(C)c1ccc(O)c(CNC2CCCCC2)c1`, the IC50 with Entamoeba histolytica and with Toxoplasma gondii was more than 30 µM each time.

For `Cc1ccc(S(=O)(=O)c2c(COC(=O)c3cccc(C)c3)c(-c3ccccc3)nn2C)cc1`, the IC50 in the experiment with Entamoeba histolytica and in the experiment on Toxoplasma gondii was more than 30 µM each time.

Take `CCOC(=O)c1cn(CC)c2cc(N3CCCCC3)c(F)cc2c1=O`: the IC50 in the experiment on Entamoeba histolytica and in the experiment on Toxoplasma gondii was more than 30 µM throughout.

For `CN(C)c1ccc(N=Cc2ccc(N3CCOCC3)cc2)cc1`, the IC50 in the experiment on Entamoeba histolytica and in the experiment with Toxoplasma gondii was more than 30 µM in each case.

For `COc1ccc(CCn2c(=N)c(C(=O)NCc3cccnc3)cc3c(=O)n4cccc(C)c4nc32)cc1`, the IC50 in the experiment on Entamoeba histolytica and in the experiment with Toxoplasma gondii was more than 30 µM each time.

For `CCOC(=O)C1=CN(C)C=C(C(=O)OCC)C1c1cc(Br)c(OCC)c(OC)c1`, the IC50 in the experiment on Entamoeba histolytica and in the experiment on Toxoplasma gondii was more than 30 µM in each case.

For `O=c1c2c([nH]c3ccccc13)CCCC2`, the concentration for half-maximal inhibition (IC50) with Entamoeba histolytica and with Toxoplasma gondii was more than 30 µM throughout.

As to `Oc1c2c(nc3cc(-c4ccccc4)nn13)CCCC2`, the 50% inhibitory concentration (IC50) is more than 30 µM in the experiment on Entamoeba histolytica and 26.2 µM in the experiment with Toxoplasma gondii.

For the compound `O=C(NCC1Cc2cccc(-c3ccncc3)c2O1)c1csc2c1CCCC2` (centres undefined), the IC50 in the experiment with Entamoeba histolytica and in the experiment on Toxoplasma gondii was more than 30 µM in each case.

Turning to `CN(C)c1ccc(C=Cc2nc(=O)c3ccccc3o2)cc1`, the IC50 in the experiment on Entamoeba histolytica and with Toxoplasma gondii was more than 30 µM each time.

As to `COc1ccc(-c2nonc2NC(=O)c2cccc(Cl)c2)cc1OC`, the half-maximal inhibitory concentration (IC50) in the experiment with Entamoeba histolytica and with Toxoplasma gondii was more than 30 µM in each case.

With `COc1ccc(Nc2nc(NCc3ccccc3)c3ccccc3n2)cc1`, the IC50 in the experiment with Entamoeba histolytica and in the experiment on Toxoplasma gondii was more than 30 µM in each case.

Turning to `Cc1cc(NCCN2CCCCC2)c2ccc3ccccc3c2n1`, the IC50 in the experiment with Entamoeba histolytica and in the experiment with Toxoplasma gondii was more than 30 µM in each case.

Consider `COc1ccc(-c2cc(=O)oc3c4c(ccc23)OCN(Cc2ccc(F)cc2)C4)cc1`, for which the half-maximal inhibitory concentration (IC50) in the experiment on Entamoeba histolytica and with Toxoplasma gondii was more than 30 µM in each case.

As for `COCCn1c(C)nc2ccccc2c1=O`, the IC50 in the experiment with Entamoeba histolytica and in the experiment on Toxoplasma gondii was more than 30 µM throughout.

Regarding `CCn1c(SCC(=O)Nc2cc(C(F)(F)F)ccc2Cl)nc2ccccc2c1=O`, the IC50 in the experiment with Entamoeba histolytica and in the experiment with Toxoplasma gondii was more than 30 µM throughout.

Turning to `COc1cc2c3cc1Oc1c(OC)c(OC)cc4c1C(Cc1ccc(O)c(c1)Oc1ccc(cc1)CC3N(C)CC2)N(C)CC4` (centres undefined), the IC50 in the experiment on Entamoeba histolytica and in the experiment with Toxoplasma gondii was more than 30 µM each time.

As to `COc1ccc(C2N(C)c3ccccc3N2C)cc1`, the IC50 with Entamoeba histolytica and with Toxoplasma gondii was more than 30 µM throughout.

As to `CCOc1ccc(-n2cc(-c3ccccc3)c3c(SCc4cc(C)ccc4C)ncnc32)cc1`, the IC50 is more than 30 µM with Entamoeba histolytica and 11.2 µM in the experiment with Toxoplasma gondii.

For the compound `CCCc1c(C)nc2ccc(Br)cc2c1O`, the half-maximal inhibitory concentration (IC50) in the experiment with Entamoeba histolytica and in the experiment on Toxoplasma gondii was more than 30 µM throughout.

With `O=c1nc(C=Cc2ccc(Cl)cc2)oc2ccccc12`, the IC50 in the experiment with Entamoeba histolytica and with Toxoplasma gondii was more than 30 µM throughout.

Regarding `COc1ccc(N2CCN(C(CNC(=O)C3CCCCC3)c3ccc4c(c3)OCO4)CC2)cc1` (centres undefined), the values for the IC50 with Entamoeba histolytica and with Toxoplasma gondii were more than 30 µM and 26.6 µM, respectively.

In the case of `Cc1cc(=O)oc2c1ccc1oc(C(=O)c3ccccc3)c(C)c12`, the half-inhibitory concentration (IC50) with Entamoeba histolytica and with Toxoplasma gondii was more than 30 µM each time.

In the case of `Oc1ccc(C(=C(Cl)Cl)c2ccc(O)cc2)cc1`, the IC50 with Entamoeba histolytica and in the experiment with Toxoplasma gondii was more than 30 µM each time.

On to `COc1cc(OC)cc(N2C(=O)N(Cc3ccc(C(C)(C)C)cc3)c3ccccc3S2(=O)=O)c1`, for which the IC50 with Entamoeba histolytica and with Toxoplasma gondii was more than 30 µM throughout.

`Cc1cc(NC(=O)C2c3ccccc3C(=O)N(CC(C)C)C2c2cccs2)no1` (centres undefined): the IC50 with Entamoeba histolytica is more than 30 µM; in the experiment with Toxoplasma gondii, 20.9 µM.

On to `Cn1c(C(=O)c2cccc3ccccc23)nc2ccccc21`, for which the half-inhibitory concentration (IC50) with Entamoeba histolytica and in the experiment with Toxoplasma gondii was more than 30 µM each time.

As to `Cc1ccc(-c2cc3c(SCC(=O)Nc4cc(C(F)(F)F)ccc4Cl)nccn3n2)cc1`, the IC50 in the experiment with Entamoeba histolytica and in the experiment with Toxoplasma gondii was more than 30 µM in each case.

For the compound `O=C(Nc1ccc(F)c(Cl)c1)Nc1ccc(Cl)c(Cl)c1`, the IC50 is more than 30 µM in the experiment on Entamoeba histolytica and 26.5 µM with Toxoplasma gondii.

Consider `CN(C)CCCNc1c2ccccc2nc2ccccc12`, for which the half-inhibitory concentration (IC50) with Entamoeba histolytica was more than 30 µM; with Toxoplasma gondii it was 25.8 µM.

For `N=c1n(CCN2CCCCC2)c2ccccc2n1CC(O)c1cccc(Br)c1` (centres undefined), the IC50 with Entamoeba histolytica and in the experiment with Toxoplasma gondii was more than 30 µM each time.

Regarding `COc1ccc(CN2CCCC(C(=O)c3ccc(C(F)(F)F)cc3)C2)c(O)c1` (centres undefined), the IC50 in the experiment with Entamoeba histolytica and in the experiment on Toxoplasma gondii was more than 30 µM in each case.

Consider `CSC1=NC(=Nc2c(C)cccc2C)C2(CCC(C(C)(C)C)CC2)N1c1ccc(Cl)cc1` (centres undefined), for which the IC50 with Entamoeba histolytica and with Toxoplasma gondii was more than 30 µM throughout.

For `CC(=O)c1sc(NC(=O)Nc2ccc(C)cc2C)nc1C`, the half-inhibitory concentration (IC50) in the experiment on Entamoeba histolytica and in the experiment with Toxoplasma gondii was more than 30 µM in each case.

As to `CCC(=O)Nc1nnc(Cc2ccc(OC)c(OC)c2)s1`, the half-inhibitory concentration (IC50) in the experiment with Entamoeba histolytica and with Toxoplasma gondii was more than 30 µM throughout.

On to `CCc1ccc(CNCC(O)c2ccccc2)cc1` (centres undefined), for which the IC50 in the experiment with Entamoeba histolytica and in the experiment with Toxoplasma gondii was more than 30 µM each time.

As to `COc1ccc(NC(=O)C2c3ccccc3C(=O)N(CC(C)C)C2c2cccs2)cc1Cl` (centres undefined), the IC50 with Entamoeba histolytica and in the experiment with Toxoplasma gondii was more than 30 µM in each case.

As to `COc1cc(C(=O)Nc2ccc(-c3nc4ccccc4[nH]3)cc2)cc(OC)c1OC`, the IC50 in the experiment with Entamoeba histolytica and in the experiment on Toxoplasma gondii was more than 30 µM in each case.

In the case of `Cc1ccc(C)c(-c2csc(Nc3ccc(C)c(C)c3)n2)c1`, the IC50 in the experiment with Entamoeba histolytica and in the experiment with Toxoplasma gondii was more than 30 µM in each case.

On to `CSc1ccccc1C(=O)Nc1nc(-c2ccccn2)cs1`, for which the IC50 in the experiment with Entamoeba histolytica and in the experiment on Toxoplasma gondii was more than 30 µM in each case.

For the compound `CN(C)c1ccc(-c2nc3cc(N)ccc3[nH]2)cc1`, the concentration for half-maximal inhibition (IC50) in the experiment with Entamoeba histolytica and in the experiment on Toxoplasma gondii was more than 30 µM each time.

For the compound `COc1ccc(N2CCN(C(CNC(=O)CC(C)(C)C)c3ccc4c(c3)OCO4)CC2)cc1` (centres undefined), the IC50 in the experiment with Entamoeba histolytica and with Toxoplasma gondii was more than 30 µM each time.

Consider `O=C(Nc1ccc(-c2nc3ccccc3[nH]2)cc1)c1ccc(Cl)c(Cl)c1`, for which the IC50 in the experiment with Entamoeba histolytica and in the experiment on Toxoplasma gondii was more than 30 µM throughout.

For `CCOc1ccc2nc(C)cc(Nc3ccc(N(C)C)cc3)c2c1`, the IC50 in the experiment with Entamoeba histolytica and in the experiment with Toxoplasma gondii was more than 30 µM in each case.

`Cc1cccc(-n2ncc3c(O)nc(-n4nc(C)cc4NC(=O)c4cc5ccccc5o4)nc32)c1`: the IC50 in the experiment with Entamoeba histolytica and in the experiment on Toxoplasma gondii was more than 30 µM each time.

With `CN(C)c1ccc(C(O)(c2ccc(N(C)C)cc2)c2ccc(N(C)C)cc2)cc1` [METHYLROSANILINE], the IC50 in the experiment with Entamoeba histolytica and in the experiment with Toxoplasma gondii was more than 30 µM each time.

In the case of `COc1ccc(C(=O)NC(c2ccccc2Cl)c2cc(Cl)c3cccnc3c2O)cc1` (centres undefined), the IC50 in the experiment on Entamoeba histolytica and in the experiment on Toxoplasma gondii was more than 30 µM throughout.

On to `Oc1ccccc1CN1CCN(C(c2ccccc2)c2ccccc2)CC1`, for which the IC50 with Entamoeba histolytica and in the experiment on Toxoplasma gondii was more than 30 µM each time.

On to `Cc1ccccc1OCCSc1nc2ccc(NC(=O)c3cccs3)cc2s1`, for which the concentration for half-maximal inhibition (IC50) with Entamoeba histolytica and in the experiment on Toxoplasma gondii was more than 30 µM each time.

With `O=c1nc(C=Cc2ccc(Br)cc2)oc2ccccc12`, the half-inhibitory concentration (IC50) in the experiment on Entamoeba histolytica and in the experiment on Toxoplasma gondii was more than 30 µM throughout.

Turning to `COc1ccc(CN2CCN(Cc3ccccc3)CC2)c(O)c1`, the 50% inhibitory concentration (IC50) in the experiment on Entamoeba histolytica and in the experiment with Toxoplasma gondii was more than 30 µM throughout.

On to `CC(C)(C)C(=O)Nc1ccc(C(=O)Nc2cccc(-c3nc4ccccc4[nH]3)c2)cc1`, for which the half-maximal inhibitory concentration (IC50) in the experiment on Entamoeba histolytica and with Toxoplasma gondii was more than 30 µM in each case.

For `O=C(NCCCN1CCC(N2CCCCC2)CC1)C1=Cc2cc(Br)ccc2OC1`, the 50% inhibitory concentration (IC50) in the experiment on Entamoeba histolytica and in the experiment on Toxoplasma gondii was more than 30 µM in each case.

Regarding `CCN1CCCC1CNc1[nH]cnc2c3cc(Cl)ccc3nc1-2` (centres undefined), the 50% inhibitory concentration (IC50) with Entamoeba histolytica and in the experiment on Toxoplasma gondii was more than 30 µM each time.

On to `CC(O)(c1ccc(Cl)cc1)C(CN1CCCCC1)c1ccccc1` (centres undefined), for which the 50% inhibitory concentration (IC50) with Entamoeba histolytica and in the experiment with Toxoplasma gondii was more than 30 µM throughout.

In the case of `O=C(Nc1ccc(-c2nc3cc4ccccc4cc3[nH]2)cc1)c1cccc(Br)c1`, the IC50 with Entamoeba histolytica and in the experiment with Toxoplasma gondii was more than 30 µM each time.

With `COc1ccc(Br)cc1C1Nc2ccc3ccccc3c2C2=C1C(=O)CC(c1ccccc1)C2` (centres undefined), the concentration for half-maximal inhibition (IC50) in the experiment with Entamoeba histolytica and in the experiment on Toxoplasma gondii was more than 30 µM each time.

For the compound `Cc1ccc2cc3c(N)c4c(C)ccc(C)c4nc3nc2c1`, the IC50 with Entamoeba histolytica and with Toxoplasma gondii was more than 30 µM throughout.

For the compound `O=C(NC1CCN(Cc2ccccc2)CC1)c1cc(C(=O)NC2CCN(Cc3ccccc3)CC2)cc(C(=O)NC2CCN(Cc3ccccc3)CC2)c1`, the IC50 with Entamoeba histolytica and in the experiment with Toxoplasma gondii was more than 30 µM in each case.

Consider `O=C(Nc1ccc(C23CC4CC(CC(c5ccccc5)(C4)C2)C3)cc1)c1cccs1`, for which the concentration for half-maximal inhibition (IC50) in the experiment on Entamoeba histolytica and in the experiment on Toxoplasma gondii was more than 30 µM throughout.

Turning to `Cc1ccc(NC(=O)Nc2cccc(Cl)c2)cc1F`, the concentration for half-maximal inhibition (IC50) in the experiment with Entamoeba histolytica and in the experiment with Toxoplasma gondii was more than 30 µM each time.

As to `Cc1ccc(Cl)cc1N1CCN(CCCNC(=O)C2CCN(c3nc4ccccc4[nH]3)CC2)CC1`, the IC50 in the experiment with Entamoeba histolytica and in the experiment on Toxoplasma gondii was more than 30 µM each time.

Take `COc1ccc(CNC2CCN(c3ccc(NC(=O)c4cccc(Cl)c4)cc3)CC2)cc1OC`: the 50% inhibitory concentration (IC50) in the experiment on Entamoeba histolytica and in the experiment with Toxoplasma gondii was more than 30 µM each time.
